Measurements: patent US10300058B2, “Tyrosine kinase inhibitor and uses thereof” (Xuanzhu Pharma Co., Ltd., priority 2014, dated 2019)
Each block holds one molecule with its values, some of them ahead of it.

Assays:
[1] = target: EGFR L858R (Homo sapiens (Human), UniProt P00533, L858R); assay: Mobility Shift Assay, in vitro enzyme-inhibiting activity, EGFR L858R; type: biochemical; conditions: for IC50: Km ATP; for Selectivity WT/L858R: ratio of IC50
Experimental: (§1) 1. Preparation of Reagents
(§2) 2. Preparation of a Compound Solution
(§3) (1) To the second well of a 96-well plate, 5 μL 10 mM compound (dissolved in DMSO) was added, and 95 μL 100% DMSO was added to prepare 100 μL 0.5 mM compound.
(§4) (2) To other wells, 60 μL 100% DMSO was added. 20 μL compound from the second well was added to the third well, and 4-fold dilution was further performed to get 10 diluted concentrations.
(§5) (3) To the first well and the twelfth well of the 96-well plate, 100 μL 100% DMSO was separately added, and the two wells were used as control wells.
(§6) (4) 10 μL from each well of the 96-well plate was added to another 96-well plate, and 90 μL 1-fold kinase buffer was added.
(§7) (5) 5 μL from the 96-well plate was added to another 384-well plate, for example, transferred from A1 well of the 96-well plate to A1 and A2 wells of the 384-well plate, and transferred from A2 well of the 96-well plate to A3 and A4 wells of the 384-well plate, and so on.
(§8) To 384-well plate, 10 μL 2.5-fold enzyme solution was added, and incubated at room temperature for 10 min.
(§9) (5) Kinase reaction and stop
(§10) After incubation at 28° C. for a period of time (depending on kinase), 25 μL stop solution was added.
(§11) 4. Data on percent conversion was read by Caliper.
(§12) (1) Data on enzyme activity was obtained by Caliper program;
(§13) (2) Inhibition rate of enzyme activity was calculated from the data on enzyme activity by the following formula: Inhibition rate(%)=(maximal value−the measured value of a test compound)/(maximal value-minimal value)×100,
(§14) wherein, the maximal value represents the measured value of DMSO control; and the minimal value represents the measured value of blank control.
(§15) (3) Calculation of IC50 value by XLFit excel.

[2] = target: EGFR T790M-L858R (Homo sapiens (Human), UniProt P00533, L858R/T790M); assay: Mobility Shift Assay, in vitro enzyme-inhibiting activity, EGFR T790M-L858R; type: biochemical; conditions: for IC50: Km ATP; for Selectivity WT/T790M-L858R: ratio of IC50
Experimental: as §1, §2, §3, §4, §5, §6, §7, §8, §9, §10, §11, §12, §13, §14, §15

[3] = target: wild-type EGFR (WT EGFR) (Homo sapiens (Human), UniProt P00533); assay: Mobility Shift Assay, in vitro enzyme-inhibiting activity, wild-type EGFR; type: biochemical; conditions: Km ATP
Experimental: as §1, §2, §3, §4, §5, §6, §7, §8, §9, §10, §11, §12, §13, §14, §15

[4] = target: EGFR T790M (Homo sapiens (Human), UniProt P00533, T790M); assay: Mobility Shift Assay, in vitro enzyme-inhibiting activity, EGFR T790M; type: biochemical; conditions: for IC50: Km ATP; for Selectivity (WT/T790M): ratio of IC50
Experimental: as §1, §2, §3, §4, §5, §6, §7, §8, §9, §10, §11, §12, §13, §14, §15

[5] = target: EGFR (d746-750) (Homo sapiens (Human), UniProt P00533, DEL746-750); assay: Mobility Shift Assay, in vitro enzyme-inhibiting activity, EGFR (d746-750); type: biochemical; conditions: for IC50: Km ATP; for Selectivity WT/d746-750: ratio of IC50
Experimental: as §1, §2, §3, §4, §5, §6, §7, §8, §9, §10, §11, §12, §13, §14, §15

[6] = system: A431 cell (wild-type EGFR gene); assay: In vitro cytologic activity, Celltiter-Glo, A431 cells; type: cell-based; conditions: Homo sapiens, A-431, 72 h
Experimental: (§16) 1.1 Preparation of Cell Suspension
(§17) Culture medium was removed from culture bottle;
(§18) PBS was added to wash the cells; • pancreatin was added for digestion, and the cells were collected by centrifugation; • the cells were resuspended in a culture medium containing 10% fetal bovine serum, counted and adjusted to a concentration of 2×10^4/mL or 3×10^4/mL (cell viability must be greater than 90%); • the cell suspension was added to a 96-well plate, at 100 μL for each well, i.e., 2000/well for H1975 cell; 3000/well for A431 cell; and • the cells were cultured at 37° C. in 5% CO2 incubator overnight.
(§19) Dilution of a compound in DMSO (or water for injection) • (1) The compound was 5-fold diluted with DMSO from 10 mM to 2 mM, and then 4-fold diluted from 2 mM, to get 10 concentrations; • High control (HC, control without compound inhibition): 0.5% DMSO; • Low control (LC, control with compound inhibition): 1000 nM.
(§20) i. To each well, 99 μL growth medium containing 10% FBS was added, and then 1 μL diluted compound was added, the total volume of the well was […], and the final concentration of the compound was measured.
(§21) The test plate was left at room temperature, and equilibrated for 30 min. 80 μL culture medium was discarded. 60 μL CTG reagent (Celltiter-Glo kit) was added, and shaked for 2 min in a fast shaker, and was placed at room temperature for 10 min. The values were read by Envision instrument.

[7] = system: H1975 cell (EGFR-T790M/L858R double mutation); assay: In vitro cytologic activity, Celltiter-Glo, H1975 cells; type: cell-based, human; conditions: for IC50: Homo sapiens, NCI-H1975, 72 h, 72 h, Celltiter-Glo; for Selectivity (A431/H1975): ratio of IC50
Experimental: as §16, §17, §18, §19, §20, §21

EGFR (d746-750), sequence (P00533 other isoform, or with tags, fused parts or gaps del 1-668/del 746-750 limits assumed): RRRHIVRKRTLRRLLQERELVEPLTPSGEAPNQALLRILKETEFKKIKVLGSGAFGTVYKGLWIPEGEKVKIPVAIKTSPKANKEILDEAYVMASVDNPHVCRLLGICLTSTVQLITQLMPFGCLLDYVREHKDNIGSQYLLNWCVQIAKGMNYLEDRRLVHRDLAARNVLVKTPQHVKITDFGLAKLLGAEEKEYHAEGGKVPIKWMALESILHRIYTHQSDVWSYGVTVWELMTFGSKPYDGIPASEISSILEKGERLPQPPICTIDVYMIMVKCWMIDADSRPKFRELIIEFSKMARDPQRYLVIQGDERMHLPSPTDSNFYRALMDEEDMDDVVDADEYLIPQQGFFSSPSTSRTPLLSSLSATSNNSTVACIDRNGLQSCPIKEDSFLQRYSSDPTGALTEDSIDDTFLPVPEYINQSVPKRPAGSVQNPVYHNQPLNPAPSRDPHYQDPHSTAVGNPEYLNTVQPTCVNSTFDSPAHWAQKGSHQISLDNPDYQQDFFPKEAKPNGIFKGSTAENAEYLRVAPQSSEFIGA
wild-type EGFR (WT EGFR), sequence (P00533 25-1210): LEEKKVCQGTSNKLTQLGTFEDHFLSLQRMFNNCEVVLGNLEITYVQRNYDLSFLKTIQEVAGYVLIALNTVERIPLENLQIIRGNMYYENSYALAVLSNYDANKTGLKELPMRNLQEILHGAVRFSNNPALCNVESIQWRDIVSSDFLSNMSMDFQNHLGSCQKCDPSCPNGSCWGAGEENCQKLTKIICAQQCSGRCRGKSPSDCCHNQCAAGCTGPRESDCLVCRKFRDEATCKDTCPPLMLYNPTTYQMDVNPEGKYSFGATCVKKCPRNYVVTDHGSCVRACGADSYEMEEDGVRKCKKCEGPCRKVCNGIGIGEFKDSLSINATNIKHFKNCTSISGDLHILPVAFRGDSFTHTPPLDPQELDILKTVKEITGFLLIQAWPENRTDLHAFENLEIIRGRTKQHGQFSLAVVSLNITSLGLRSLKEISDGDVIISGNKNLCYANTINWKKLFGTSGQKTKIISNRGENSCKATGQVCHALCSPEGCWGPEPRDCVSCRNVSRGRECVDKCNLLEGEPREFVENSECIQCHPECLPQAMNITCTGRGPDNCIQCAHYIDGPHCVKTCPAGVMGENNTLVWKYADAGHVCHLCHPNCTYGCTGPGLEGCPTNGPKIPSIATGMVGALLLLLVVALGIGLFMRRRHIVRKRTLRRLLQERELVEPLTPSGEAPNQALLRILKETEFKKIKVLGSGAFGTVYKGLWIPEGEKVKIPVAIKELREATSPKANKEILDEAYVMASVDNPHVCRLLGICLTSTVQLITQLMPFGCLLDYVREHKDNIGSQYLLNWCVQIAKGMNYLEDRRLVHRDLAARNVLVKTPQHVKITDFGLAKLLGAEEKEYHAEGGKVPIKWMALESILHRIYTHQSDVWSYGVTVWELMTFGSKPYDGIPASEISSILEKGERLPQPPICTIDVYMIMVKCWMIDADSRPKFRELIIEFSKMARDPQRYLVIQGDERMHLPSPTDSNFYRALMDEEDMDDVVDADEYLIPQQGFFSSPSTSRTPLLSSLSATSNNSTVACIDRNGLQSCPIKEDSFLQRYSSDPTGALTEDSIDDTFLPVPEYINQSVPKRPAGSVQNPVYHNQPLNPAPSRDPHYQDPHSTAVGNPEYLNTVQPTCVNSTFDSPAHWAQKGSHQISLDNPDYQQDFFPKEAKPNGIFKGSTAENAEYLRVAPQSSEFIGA
EGFR T790M, sequence (P00533 25-1210 T790M): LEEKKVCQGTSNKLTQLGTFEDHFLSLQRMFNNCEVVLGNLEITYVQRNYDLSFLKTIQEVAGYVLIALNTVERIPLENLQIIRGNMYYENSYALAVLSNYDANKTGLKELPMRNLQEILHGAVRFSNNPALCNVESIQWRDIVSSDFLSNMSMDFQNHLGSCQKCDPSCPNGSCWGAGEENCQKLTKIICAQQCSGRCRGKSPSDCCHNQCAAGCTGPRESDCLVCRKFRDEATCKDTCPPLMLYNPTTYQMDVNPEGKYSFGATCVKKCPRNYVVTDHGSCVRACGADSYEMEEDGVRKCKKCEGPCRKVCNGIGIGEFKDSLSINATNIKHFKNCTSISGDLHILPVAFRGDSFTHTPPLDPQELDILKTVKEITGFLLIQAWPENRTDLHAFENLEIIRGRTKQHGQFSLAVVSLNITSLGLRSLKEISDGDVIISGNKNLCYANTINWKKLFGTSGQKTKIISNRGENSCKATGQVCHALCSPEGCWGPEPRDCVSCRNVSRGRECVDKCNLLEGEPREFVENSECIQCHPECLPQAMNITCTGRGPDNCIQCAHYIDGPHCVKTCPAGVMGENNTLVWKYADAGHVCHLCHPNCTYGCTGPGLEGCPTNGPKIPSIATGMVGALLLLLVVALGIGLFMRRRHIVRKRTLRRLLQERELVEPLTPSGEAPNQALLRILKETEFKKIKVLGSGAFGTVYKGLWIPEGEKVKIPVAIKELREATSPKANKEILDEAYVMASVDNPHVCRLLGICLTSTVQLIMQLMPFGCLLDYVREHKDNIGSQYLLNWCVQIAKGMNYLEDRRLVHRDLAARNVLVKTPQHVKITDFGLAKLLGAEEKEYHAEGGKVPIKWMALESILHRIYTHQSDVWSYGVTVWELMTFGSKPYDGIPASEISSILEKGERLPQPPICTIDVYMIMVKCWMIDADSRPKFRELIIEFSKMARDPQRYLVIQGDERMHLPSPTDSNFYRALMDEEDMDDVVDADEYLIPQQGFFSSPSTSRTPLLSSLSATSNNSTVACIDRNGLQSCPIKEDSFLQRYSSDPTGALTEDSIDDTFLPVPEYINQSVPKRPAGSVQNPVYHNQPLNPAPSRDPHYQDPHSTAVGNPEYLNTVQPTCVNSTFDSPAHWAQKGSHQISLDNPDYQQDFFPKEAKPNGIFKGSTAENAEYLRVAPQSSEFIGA
EGFR T790M-L858R, sequence (P00533 25-1210 T790M/L858R): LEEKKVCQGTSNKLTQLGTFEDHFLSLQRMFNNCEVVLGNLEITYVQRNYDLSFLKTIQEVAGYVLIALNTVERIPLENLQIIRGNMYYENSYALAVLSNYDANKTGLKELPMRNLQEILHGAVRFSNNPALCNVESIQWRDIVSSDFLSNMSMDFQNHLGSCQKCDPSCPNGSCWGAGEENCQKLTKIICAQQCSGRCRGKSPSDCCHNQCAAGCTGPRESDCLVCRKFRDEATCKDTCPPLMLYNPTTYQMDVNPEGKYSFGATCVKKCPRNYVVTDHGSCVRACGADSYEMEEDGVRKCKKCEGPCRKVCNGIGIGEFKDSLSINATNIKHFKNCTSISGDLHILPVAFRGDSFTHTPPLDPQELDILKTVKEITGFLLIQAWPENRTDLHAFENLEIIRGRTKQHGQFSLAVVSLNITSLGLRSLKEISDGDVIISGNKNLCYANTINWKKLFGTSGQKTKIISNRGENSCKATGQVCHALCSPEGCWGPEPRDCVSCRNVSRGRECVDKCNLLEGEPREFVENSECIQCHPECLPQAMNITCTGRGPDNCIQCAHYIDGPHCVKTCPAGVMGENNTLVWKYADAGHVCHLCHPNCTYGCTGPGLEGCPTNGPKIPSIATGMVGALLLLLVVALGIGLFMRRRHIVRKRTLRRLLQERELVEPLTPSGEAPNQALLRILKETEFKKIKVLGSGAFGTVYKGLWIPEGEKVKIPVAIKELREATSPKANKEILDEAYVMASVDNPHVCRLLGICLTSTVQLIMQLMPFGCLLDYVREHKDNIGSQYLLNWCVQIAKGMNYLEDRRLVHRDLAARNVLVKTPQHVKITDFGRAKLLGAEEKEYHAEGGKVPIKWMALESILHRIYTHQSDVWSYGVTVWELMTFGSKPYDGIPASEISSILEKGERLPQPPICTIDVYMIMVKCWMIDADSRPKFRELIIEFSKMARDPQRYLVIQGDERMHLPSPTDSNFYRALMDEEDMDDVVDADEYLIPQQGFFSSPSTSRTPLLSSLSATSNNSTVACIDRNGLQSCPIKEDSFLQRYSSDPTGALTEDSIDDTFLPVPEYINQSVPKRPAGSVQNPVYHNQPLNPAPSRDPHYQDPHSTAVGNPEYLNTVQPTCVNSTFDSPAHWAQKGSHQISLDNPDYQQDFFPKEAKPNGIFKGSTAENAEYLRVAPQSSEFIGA

IC50 ([1]; Table 5): 154 nM
Selectivity WT/L858R ([1]; Table 5): 4.8
IC50 ([2]; Table 5): 6 nM
Selectivity WT/T790M-L858R ([2]; Table 5): 122.9
IC50 ([3]; Table 1): 699 nM
IC50 ([3]; Table 5): 733 nM
IC50 ([4]; Table 1): 4.7 nM
Selectivity (WT/T790M) ([4]; Table 1): 148.7
IC50 ([5]; Table 5): 51.4 nM
Selectivity WT/d746-750 ([5]; Table 5): 14.2
Compound: C=CC(=O)Nc1cccc(Nc2nc(Nc3ccc(C4=CCN(C(C)=O)CC4)cc3OC)ncc2C(F)(F)F)c1 [Compound 3, N-(3-((2-((4-(1-acetyl-1,2,3,6-tetrahydropyridin-4-yl)-2-methoxyphenyl)amino)-5-(trifluoromethyl)pyrimidin-4-yl)amino)phenyl)acrylamide]

IC50 ([1]; Table 7): 82 nM
Selectivity WT/L858R ([1]; Table 7): 5.2
IC50 ([2]; Table 7): 5.2 nM
Selectivity WT/T790M-L858R ([2]; Table 7): 81.3
IC50 ([3]; Table 3): 423 nM
IC50 ([3]; Table 7): 423 nM
IC50 ([4]; Table 3): 7.2 nM
Selectivity (WT/T790M) ([4]; Table 3): 58.8
IC50 ([4]; Table 7): 7.2 nM
Selectivity (WT/T790M) ([4]; Table 7): 58.8
IC50 ([5]; Table 7): 40 nM
Selectivity WT/d746-750 ([5]; Table 7): 10.6
Compound: C=CC(=O)Nc1cccc(Nc2nc(Nc3ccc(C4CCN(C(C)=O)CC4)cc3OC)ncc2C(F)(F)F)n1 [Compound 4, N-(6-((2-((4-(1-acetylpiperidin-4-yl)-2-methoxyphenyl)amino)-5-(trifluoromethyl)pyrimidin-4-yl)amino)pyridin-2-yl)acrylamide]

Compound: C=CC(=O)Nc1cccc(Nc2nc(Nc3ccc(N4CC5CCC(C4)N5C(C)=O)cc3OC)ncc2C(F)(F)F)c1 [Compound 7, N-(3-((2-((4-(8-acetyl-3,8-diazabicyclo[3.2.1]octan-3-yl)-2-methoxyphenyl)amino)-5-(trifluoromethyl)pyrimidin-4-yl)amino)phenyl)acrylamide]
IC50 ([3]; Table 4, unit inferred): 332 nM
IC50 ([4]; Table 4, unit inferred): 6.2 nM
Selectivity (WT/T790M) ([4]; Table 4): 53.5

IC50 ([1]; Table 7): 119 nM
Selectivity WT/L858R ([1]; Table 7): 4.7
IC50 ([2]; Table 7): 12.6 nM
Selectivity WT/T790M-L858R ([2]; Table 7): 44.5
IC50 ([3]; Table 7): 560 nM
IC50 ([4]; Table 7): 9 nM
Selectivity (WT/T790M) ([4]; Table 7): 62.2
IC50 ([5]; Table 7): 92.7 nM
Selectivity WT/d746-750 ([5]; Table 7): 6.0
Compound: C=CC(=O)Nc1cccc(Nc2nc(Nc3ccc(N4C[C@H]5CN(C(C)=O)C[C@H]5C4)cc3OC)ncc2C(F)(F)F)c1 [Compound 9-1, N-(3-((2-((4-((cis)-5-acetylhexahydropyrrolo[3,4-c]pyrrol-2(1H)-yl)-2-methoxyphenyl)amino)-5-(trifluoromethyl)pyrimidin-4-yl)amino)phenyl)acrylamide]

IC50 ([3]; Table 2): 640 nM
IC50 ([4]; Table 2): 13 nM
Selectivity (WT/T790M) ([4]; Table 2): 49.2
IC50 ([6]; Table 9): 1770 nM
IC50 ([7]; Table 9): 179 nM
Compound: C=CC(=O)Nc1cccc(Nc2nc(Nc3cc4c(cc3OC)CN(C(C)=O)CC4)ncc2C(F)(F)F)c1 [Compound 11, N-(3-((2-((2-acetyl-7-methoxy-1,2,3,4-tetrahydroisoquinolin-6-yl)amino)-5-(trifluoromethyl)pyrimidin-4-yl)amino)phenyl)acrylamide]
Selectivity (A431/H1975) ([7]; Table 9): 9.9

IC50 ([3]; Table 4, unit inferred): 1370 nM
IC50 ([4]; Table 4, unit inferred): 16 nM
Selectivity (WT/T790M) ([4]; Table 4): 85.6
Compound: C=CC(=O)Nc1cccc(Nc2nc(Nc3ccc4c(c3OC)CN(C(C)=O)CC4)ncc2C(F)(F)F)c1 [Compound 17, N-(3-((2-((2-acetyl-8-methoxy-1,2,3,4-tetrahydroisoquinoline-7-yl)amino)-5-(trifluoromethyl)pyrimidin-4-yl)amino)phenyl)acrylamide]

IC50 ([1]; Table 7): 28.2 nM
Selectivity WT/L858R ([1]; Table 7): 6.4
IC50 ([2]; Table 7): 4.06 nM
Selectivity WT/T790M-L858R ([2]; Table 7): 44.6
IC50 ([3]; Table 7): 181 nM
IC50 ([4]; Table 7): 2.7 nM
Selectivity (WT/T790M) ([4]; Table 7): 67.2
IC50 ([5]; Table 7): 28.3 nM
Selectivity WT/d746-750 ([5]; Table 7): 6.4
Compound: C=CC(=O)Nc1cccc(Nc2nc(Nc3ccc(C4CCNC(=O)C4)cc3OC)ncc2C(F)(F)F)c1 (stereo not shown) [Compound 22, N-(3-((2-((2-methoxy-4-(2-oxopiperidin-4-yl)phenyl)amino)-5-(trifluoromethyl)pyrimidin-4-yl)amino)phenyl)acrylamide]

IC50 ([3]; Table 4, unit inferred): 294 nM
IC50 ([4]; Table 4, unit inferred): 3.9 nM
Selectivity (WT/T790M) ([4]; Table 4): 75.4
Compound: C=CC(=O)Nc1cccc(Nc2nc(Nc3ccc(C4CCN(CCF)C(=O)C4)cc3OC)ncc2C(F)(F)F)c1 (stereo not shown) [Compound 23, N-(3-((2-((4-(1-(2-fluoroethyl)-2-oxopiperidin-4-yl)-2-methoxyphenyl)amino)-5-(trifluoromethyl)pyrimidin-4-yl)amino)phenyl)acrylamide]

IC50 ([1]; Table 7): 109 nM
Selectivity WT/L858R ([1]; Table 7): 6.1
IC50 ([2]; Table 7): 10.2 nM
Selectivity WT/T790M-L858R ([2]; Table 7): 65.4
IC50 ([3]; Table 7): 666 nM
IC50 ([4]; Table 7): 9.1 nM
Selectivity (WT/T790M) ([4]; Table 7): 73.2
IC50 ([5]; Table 7): 91.7 nM
Selectivity WT/d746-750 ([5]; Table 7): 7.3
Compound: C=CC(=O)Nc1cccc(Nc2nc(Nc3ccc(C4CCN(C(=O)CC)CC4)cc3OC)ncc2C(F)(F)F)c1 [Compound 24, N-(3-((2-((2-methoxy-4-(1-propionylpiperidin-4-yl)phenyl)amino)-5-(trifluoromethyl)pyrimidin-4-yl)amino)phenyl)acrylamide]

IC50 ([3]; Table 4, unit inferred): 683 nM
IC50 ([4]; Table 4, unit inferred): 7.1 nM
Selectivity (WT/T790M) ([4]; Table 4): 96.2
IC50 ([6]; Table 10, unit inferred): 3890 nM
IC50 ([7]; Table 10, unit inferred): 308 nM
Compound: C=CC(=O)Nc1cccc(Nc2nc(Nc3ccc(C4CCN(C(=O)CCF)CC4)cc3OC)ncc2C(F)(F)F)c1 [Compound 25, N-(3-((2-((4-(1-(3-fluoropropionyl)piperidin-4-yl)-2-methoxyphenyl)amino)-5-(trifluoromethyl)pyrimidin-4-yl)amino)phenyl)acrylamide]
Selectivity (A431/H1975) ([7]; Table 10): 12.6

IC50 ([3]; Table 4, unit inferred): 11 nM
IC50 ([4]; Table 4, unit inferred): 0.32 nM
Selectivity (WT/T790M) ([4]; Table 4): 34.4
IC50 ([6]; Table 10, unit inferred): 272 nM
IC50 ([7]; Table 10, unit inferred): 22.5 nM
Compound: C=CC(=O)Nc1cccc(Nc2nc(Nc3ccc(C4CCN(C)CC4)cc3OC)ncc2C(F)(F)F)c1 [Compound 29, N-(3-((2-((2-methoxy-4-(1-methylpiperidin-4-yl)phenyl)amino)-5-(trifluoromethyl)pyrimidin-4-yl)amino)phenyl)acrylamide]
Selectivity (A431/H1975) ([7]; Table 10): 12.1

IC50 ([6]; Table 10, unit inferred): 3600 nM
IC50 ([7]; Table 10, unit inferred): 266 nM
Compound: C=CC(=O)Nc1cccc(Nc2nc(Nc3ccc(OC)c4c3CCN(C(C)=O)C4)ncc2C(F)(F)F)c1 [Compound 35, N-(3-((2-((2-acetyl-8-methoxy-1,2,3,4-tetrahydroisoquinoline-5-yl)amino)-5-(trifluoromethyl)pyrimidin-4-yl)amino)phenyl)acrylamide]
Selectivity (A431/H1975) ([7]; Table 10): 13.5

IC50 ([6]; Table 10, unit inferred): 7000 nM
IC50 ([7]; Table 10, unit inferred): 326 nM
Compound: C=CC(=O)Nc1cccc(Nc2nc(Nc3ccc(OC)c4c3CN(C(C)=O)C4)ncc2C(F)(F)F)c1 [Compound 36, N-(3-((2-((2-acetyl-7-methoxyisoindolin-4-yl)amino)-5-(trifluoromethyl)pyrimidin-4-yl)amino)phenyl)acrylamide]
Selectivity (A431/H1975) ([7]; Table 10): 21.5

IC50 ([3]; Table 4, unit inferred): 1280 nM
IC50 ([4]; Table 4, unit inferred): 9.9 nM
Selectivity (WT/T790M) ([4]; Table 4): 129.7
Compound: C=CC(=O)Nc1cccc(Nc2nc(Nc3cccc4c3CCN(C(C)=O)C4)ncc2C(F)(F)F)c1 [Compound 37, N-(3-((2-((2-acetyl-1,2,3,4-tetrahydroisoquinoline-5-yl)amino)-5-(trifluoromethyl)pyrimidin-4-yl)amino)phenyl)acrylamide]
